Assay results: the CheMixHub ionic liquid set

Assay: xn = mol fraction of the nth substance listed

CC[C@H](C)[C@H](N)C(=O)O + CC[n+]1ccn(C)c1.O=S(=O)([O-])O + O
viscosity [mPa·s], 100 kPa
Conditions	x1 = 0.0003801, x2 = 0	x1 = 0.0007797, x2 = 0	x1 = 0.00113, x2 = 0	x1 = 0.001526, x2 = 0	x1 = 0.001761, x2 = 0	x1 = 0.002228, x2 = 0	x1 = 0.002748, x2 = 0
293.15 K	1.024	1.046	1.066	1.088	1.101	1.127	1.156
298.15 K	0.902	0.913	0.923	0.934	0.94	0.953	0.968
303.15 K	0.807	0.817	0.826	0.836	0.843	0.855	0.868
308.15 K	0.729	0.739	0.748	0.757	0.763	0.775	0.787
313.15 K	0.661	0.671	0.679	0.688	0.693	0.704	0.716

CCCCCCCCCCCC[N+](C)(C)C.[Br-] + [Cl-].[Na+] + O
298.15 K, 101 kPa
Conditions	electrical conductivity [S/m]
x1 = 2.89e-06, x2 = 0.001799	0.8786
x1 = 4.51e-06, x2 = 0.0001802	0.1179
x1 = 7.42e-06, x2 = 0.001799	0.8778
x1 = 9.37e-06, x2 = 0.0001802	0.1201
x1 = 1.357e-05, x2 = 0.001799	0.878
x1 = 1.406e-05, x2 = 0.0001802	0.1223
x1 = 2.037e-05, x2 = 0.0001802	0.1252
x1 = 2.28e-05, x2 = 0.001799	0.8786
x1 = 2.92e-05, x2 = 0.0001802	0.1294
x1 = 3.184e-05, x2 = 0.001799	0.8802
x1 = 4.038e-05, x2 = 0.0001802	0.1348
x1 = 4.071e-05, x2 = 0.001799	0.8816
x1 = 4.957e-05, x2 = 0.001799	0.8831
x1 = 5.047e-05, x2 = 0.0001802	0.1397
x1 = 5.536e-05, x2 = 0.001799	0.8846
x1 = 6.115e-05, x2 = 0.001799	0.8858
x1 = 6.183e-05, x2 = 0.0001802	0.1451
x1 = 6.694e-05, x2 = 0.001799	0.8876
x1 = 7.273e-05, x2 = 0.001799	0.8895
x1 = 7.319e-05, x2 = 0.0001801	0.1504
x1 = 7.87e-05, x2 = 0.001799	0.8913
x1 = 8.4e-05, x2 = 0.0001801	0.1556
x1 = 8.467e-05, x2 = 0.001799	0.893
x1 = 9.064e-05, x2 = 0.001799	0.8946
x1 = 9.481e-05, x2 = 0.0001801	0.1607
x1 = 9.642e-05, x2 = 0.001799	0.8963
x1 = 0.000102, x2 = 0.001799	0.8978
x1 = 0.0001071, x2 = 0.0001801	0.1667
x1 = 0.0001078, x2 = 0.001799	0.8993
x1 = 0.0001134, x2 = 0.001799	0.9008
x1 = 0.0001199, x2 = 0.0001801	0.1727
x1 = 0.0001219, x2 = 0.001799	0.9032
x1 = 0.0001275, x2 = 0.001799	0.9048
x1 = 0.0001309, x2 = 0.0001801	0.1778
x1 = 0.0001331, x2 = 0.001799	0.9066
x1 = 0.0001415, x2 = 0.001798	0.9086
x1 = 0.0001435, x2 = 0.0001801	0.1838
x1 = 0.0001498, x2 = 0.001798	0.9101
x1 = 0.0001548, x2 = 0.0001801	0.1892
x1 = 0.0001554, x2 = 0.001798	0.9111
x1 = 0.000161, x2 = 0.001798	0.9122
x1 = 0.0001673, x2 = 0.0001801	0.1949
x1 = 0.0001693, x2 = 0.001798	0.9132
x1 = 0.0001776, x2 = 0.001798	0.9143
x1 = 0.0001793, x2 = 0.0001801	0.2005
x1 = 0.0001856, x2 = 0.001798	0.9156
x1 = 0.0001914, x2 = 0.0001801	0.2061
x1 = 0.0001935, x2 = 0.001798	0.9166
x1 = 0.0002017, x2 = 0.001798	0.9175
x1 = 0.0002022, x2 = 0.0001801	0.2111
x1 = 0.0002098, x2 = 0.001798	0.9186
x1 = 0.0002138, x2 = 0.0001801	0.2164
x1 = 0.000218, x2 = 0.001798	0.9197
x1 = 0.0002251, x2 = 0.0001801	0.2214
x1 = 0.0002259, x2 = 0.001798	0.9207
x1 = 0.0002339, x2 = 0.001798	0.9217
x1 = 0.0002365, x2 = 0.0001801	0.2263
x1 = 0.000246, x2 = 0.0001801	0.2301
x1 = 0.000257, x2 = 0.0001801	0.2333
x1 = 0.0002685, x2 = 0.0001801	0.2357
x1 = 0.0002797, x2 = 0.0001801	0.2376
x1 = 0.0002912, x2 = 0.0001801	0.2394
x1 = 0.0003044, x2 = 0.0001801	0.2413
x1 = 0.000319, x2 = 0.0001801	0.2432
x1 = 0.0003359, x2 = 0.0001801	0.2454
x1 = 0.0003538, x2 = 0.0001801	0.2477
x1 = 0.0003736, x2 = 0.0001801	0.2502
x1 = 0.0003955, x2 = 0.0001801	0.2528
x1 = 0.0004254, x2 = 0.0001801	0.2566

C[P+](c1ccccc1)(c1ccccc1)c1ccccc1.[Br-] + CC(=O)O
Conditions	viscosity [mPa·s]
298.2 K, 101 kPa, x1 = 0.2	74.5

CCCCCCCCCCCCCCCC[N+](C)(C)C.[Br-] + O=C[C@H](O)[C@@H](O)[C@H](O)[C@H](O)CO + O
viscosity [mPa·s], 100 kPa
Conditions	298.15 K	308.15 K	318.15 K
x2 = 0, x1 = 7.21e-06	0.896	0.742	0.617
x2 = 0, x1 = 1.442e-05	0.898	0.744	0.617
x2 = 0, x1 = 2.162e-05	0.9	0.745	0.617
x2 = 0.0008068, x1 = 7.2e-06	0.918	0.76	–
x2 = 0.000976, x1 = 1.44e-05	0.926	–	0.635
x2 = 0.0009851, x1 = 2.16e-05	–	0.768	0.636
x2 = 0.00106, x1 = 7.2e-06	–	–	0.636
x2 = 0.001255, x1 = 2.16e-05	–	0.774	0.641
x2 = 0.001314, x1 = 1.44e-05	–	0.774	–
x2 = 0.001569, x1 = 7.2e-06	0.939	0.777	0.645
x2 = 0.001577, x1 = 2.159e-05	0.946	0.782	0.647
x2 = 0.001582, x1 = 1.439e-05	0.943	–	0.647
x2 = 0.001962, x1 = 7.19e-06	0.949	–	–
x2 = 0.001965, x1 = 2.158e-05	0.957	0.791	0.655
x2 = 0.00197, x1 = 1.439e-05	0.955	–	0.654
x2 = 0.002321, x1 = 7.19e-06	–	0.793	0.659
x2 = 0.00235, x1 = 1.438e-05	–	0.798	–
x2 = 0.002365, x1 = 2.157e-05	0.968	0.8	0.662
x2 = 0.002661, x1 = 1.438e-05	0.974	0.805	0.667
x2 = 0.002693, x1 = 2.157e-05	0.978	0.808	0.669
x2 = 0.0027, x1 = 7.19e-06	0.969	0.802	–

c1ccsc1 + CCCC[n+]1ccn(C)c1.N#C[S-]
100 kPa, x1 = 1
Conditions	viscosity [mPa·s]
298.15 K	0.655
308.15 K	0.585
318.15 K	0.525
328.15 K	0.47

CCCCCCCCCCCCCCCC[n+]1ccccc1.[Br-] + O
100 kPa, x1 = 9.009e-05
Conditions	electrical conductivity [S/m]
298.15 K	0.021
303.15 K	0.021
308.15 K	0.022
313.15 K	0.024
